# Where two headings read alike, the source gives them in different places.
# Legend:
# [1] = target: GST-tagged K-Ras mutant / His-tagged hSOS1 (Homo sapiens, UniProt P01116); assay: HTRF assay, K-Ras mutant / SOS1 interaction; format: binding; settings: read-out: IC50 against mutant Kras
# Summary of the method: (§1)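 Tagged proteins: GST-K-Ras (wt or mutant), His-hSOS1; labels anti-GST-Eu/anti-6His-XL665; HEPES pH 7.4 buffer with DTT, BSA, Igepal. Read ≥10 min post-mix at ex 337 nm; IC50 from ratiometric data, duplicates.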
# wildtype Kras / hSOS1 = target: T1, wildtype Kras / hSOS1 (Homo sapiens, UniProt P01116); assay: HTRF assay, wildtype Kras / SOS1 interaction; format: binding; settings: read-out: IC50 against wildtype Kras
# T1 construct: made in house; host or cells: E. coli BL21 (DE3)
# Summary of the method: as §1
# [2] = compound nos. 102-196, general methodology of example 5
# [3] = compound nos. 201-213, general methodology of example 5
# T1 sequence (P01116 1-188 isoform P01116-2): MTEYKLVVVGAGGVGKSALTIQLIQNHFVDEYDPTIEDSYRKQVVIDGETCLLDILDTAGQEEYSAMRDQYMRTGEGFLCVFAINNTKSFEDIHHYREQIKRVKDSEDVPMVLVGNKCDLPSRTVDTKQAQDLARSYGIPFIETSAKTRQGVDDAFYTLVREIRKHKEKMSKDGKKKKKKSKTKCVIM
# GST-tagged K-Ras mutant / His-tagged hSOS1, sequence (P01116 whole entry G12D, form open): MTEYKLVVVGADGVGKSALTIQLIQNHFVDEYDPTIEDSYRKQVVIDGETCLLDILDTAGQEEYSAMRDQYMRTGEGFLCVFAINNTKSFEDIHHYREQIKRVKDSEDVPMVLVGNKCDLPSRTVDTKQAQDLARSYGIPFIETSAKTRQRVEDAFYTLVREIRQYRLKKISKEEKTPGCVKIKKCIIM
Compound,"IC50 [1, 2] [nM]",IC50 (wildtype Kras / hSOS1; [2]) [nM],IC50 ([1]; compound nos. 401-703) [nM],IC50 (wildtype Kras / hSOS1; compound nos. 401-703) [nM],also measured
"CN1CCC[C@H]1COc1nc(N2CCNCC(F)(F)C2)c2cc(Cl)c(-c3cccc4cccc(Cl)c34)c(F)c2n1 [Compound 170, 6-chloro-7-(8-chloronaph-thalen-1-yl)-4-(6,6-difluoro-1,4-diazepan-1-yl)-8-fluoro-2-(((S)-1-methylpyrrolidin-2-yl)methoxy)quinazoline]",> 500,> 500,–,–,–
"Nc1nc2c(-c3c(Cl)cc4c(N5[C@@H]6CC[C@H]5CC(F)(F)C6)nc(OC[C@@]56CCCN5C[C@H](F)C6)nc4c3F)ccc(F)c2s1 [Compound 303, 4-(6-chloro-4-((1R,5S)-3,3-difluoro-8-azabicyclo[3.2.1]-octan-8-yl)-8-fluoro-2-(((2R,7aS)-2-fluorotetra-hydro-1H-pyrrolizin-7a(5H)-yl)methoxy)quinazolin-7-yl)-7-fluorobenzo[d]thiazol-2-amine]",–,–,–,–,IC50 ([1]; compound nos. 301-306): > 1500 nM; IC50 (wildtype Kras / hSOS1; compound nos. 301-306): < 1500 nM
"Oc1cc(-c2ccc3c(N4CC5CCC(C4)N5)nc(OC[C@@]45CCCN4C[C@H](F)C5)nc3c2F)c2ccccc2c1 [Compound 209, 4-(4-((1R,5S)-3,8-diaza-bicyclo[3.2.1]octan-3-yl)-8-fluoro-2-(((2R,7aS)-2-fluoro-tetrahydro-1H-pyrrolizin-7a(5H)-yl)methoxy)quin-azolin-7-yl)naphthalen-2-ol]",–,–,–,–,"IC50 [1, 3]: < 1500 nM; IC50 (wildtype Kras / hSOS1; [3]): < 1500 nM"
"Nc1nc2c(-c3c(Cl)cc4c(N5CCCOCC5)nc(OCC56CCCN5CCC6)nc4c3F)ccc(F)c2s1 [Compound 148, 4-(6-chloro-8-fluoro-4-(1,4-oxazepan-4-yl)-2-((tetra-hydro-1H-pyrrolizin-7a(5H)-yl)methoxy)quinazolin-7-yl)-7-fluorobenzo[d]thiazol-2-amine]",< 500,< 500,–,–,–
"CN1[C@@H]2CC[C@H]1CN(c1nc(OC[C@@]34CCCN3C[C@H](F)C4)nc3c(F)c(-c4ccc(F)c5sc(N)nc45)c(Cl)cc13)C2 [Compound 205, 4-(6-chloro-8-fluoro-2-(((2R,7aS)-2-fluorotetra-hydro-1H-pyrrolizin-7a(5H)-yl)methoxy)-4-((1R,5S)-8-methyl-3,8-diazabicyclo[3.2.1]octan-3-yl)quinazolin-7-yl)-7-fluorobenzo[d]thiazol-2-amine]",–,–,–,–,"IC50 [1, 3]: < 1500 nM; IC50 (wildtype Kras / hSOS1; [3]): < 1500 nM"
"Nc1nc2c(-c3c(Cl)cc4c(N5CCCCCCC5)nc(OC[C@@]56CCCN5C[C@H](F)C6)nc4c3F)ccc(F)c2s1 [Compound 667, 4-(4-(azocan-1-yl)-6-chloro-8-fluoro-2-(((2R,7aS)-2-fluorotetrahydro-1H-pyrrol-izin-7a(5H)-yl)methoxy)-quinazolin-7-yl)-7-fluoro-benzo[d]thiazol-2-amine]",–,–,< 500,> 500,–
"Nc1nc2c(-c3c(Cl)cc4c(N5CCCC(O)CC5)nc(OC[C@@]56CCCN5C[C@H](F)C6)nc4c3F)ccc(F)c2s1 (stereo partly drawn) [Compound 407, 1-(7-(2-amino-7-fluoro-benzo[d]thiazol-4-yl)-6-chloro-8-fluoro-2-(((2R,7aS)-2-fluorotetrahydro-1H-pyr-rolizin-7a(5H)-yl)methoxy)-quinazolin-4-yl)azepan-4-ol]",–,–,< 500,< 500,–
"Nc1nc2c(-c3c(Cl)cc4c(N5CCCCC(F)(F)C5)nc(OCC56CCCN5CCC6)nc4c3F)ccc(F)c2s1 [Compound 117, 4-(6-chloro-4-(3,3-difluoro-azepan-1-yl)-8-fluoro-2-((tetrahydro-1H-pyrrolizin-7a(5H)-yl)methoxy)quin-azolin-7-yl)-7-fluorobenzo-[d]thiazol-2-amine]",< 500,< 500,–,–,–
"CN1CCC[C@H]1COc1nc(N2CCCC(C(=O)O)CC2)c2cc(Cl)c(-c3cccc4sc(N)nc34)c(F)c2n1 (stereo partly drawn) [Compound 414, 1-(7-(2-aminobenzo[d]-thiazol-4-yl)-6-chloro-8-fluoro-2-(((S)-1-methyl-pyrrolidin-2-yl)methoxy)-quinazolin-4-yl)azepane-4-carboxylic acid]",–,–,> 500,< 500,–
"CN1CCC[C@H]1COc1nc(N2CCN(S(N)(=O)=O)CC(F)(F)C2)c2cc(Cl)c(-c3cccc4sc(N)nc34)c(F)c2n1 [Compound 150, 4-(7-(2-aminobenzo[d]-thiazol-4-yl)-6-chloro-8-fluoro-2-(((S)-1-methyl-pyrrolidin-2-yl)methoxy)-quinazolin-4-yl)-6,6-difluoro-1,4-diazepane-1-sulfonamide]",> 500,< 500,–,–,–
"Nc1nc2c(-c3c(Cl)cc4c(N5CC6COCC(C5)N6)nc(OC[C@@]56CCCN5C[C@H](F)C6)nc4c3F)ccc(F)c2s1 [Compound 547, 4-(4-(3-oxa-7,9-diaza-bicyclo[3.3.1]nonan-7-yl)-6-chloro-8-fluoro-2-(((2R,7aS)-2-fluorotetra-hydro-1H-pyrrolizin-7a(5H)-yl)methoxy)quinazolin-7-yl)-7-fluorobenzo[d]thiazol-2-amine]",–,–,< 500,> 500,–
"Oc1cc(-c2ccc3c(N4CC5CCC(C4)N5)nc(OC[C@]45CCCN4C[C@@H](F)C5)nc3c2OCC(F)(F)F)c2ccccc2c1 [Compound 608, 4-(4-(3,8-diazabicyclo-[3.2.1]octan-3-yl)-2-(((2S,7aR)-2-fluorotetra-hydro-1H-pyrrolizin-7a(5H)-yl)methoxy)-8-(2,2,2-trifluoroethoxy)-quinazolin-7-yl)naph-thalen-2-ol]",–,–,> 500,> 500,–
"Oc1cc(-c2cnc3c(N4CC5CCC(C4)N5)nc(OC[C@@]45CCCN4C[C@H](F)C5)nc3c2)c2ccccc2c1 (single isomer, unassigned) [Compound 610]",–,–,> 500,> 500,–
"Nc1nc2c(-c3c(Cl)cc4c(N5C6CCCC5CNC6)nc(OC[C@@]56CCCN5C[C@H](F)C6)nc4c3F)ccc(F)c2s1 [Compound 302, 4-(4-(3,9-diazabicyclo-[3.3.1]nonan-9-yl)-6-chloro-8-fluoro-2-(((2R,7aS)-2-fluorotetrahydro-1H-pyrrolizin-7a(5H)-yl)meth-oxy)quinazolin-7-yl)-7-fluorobenzo[d]thiazol-2-amine]",–,–,–,–,IC50 ([1]; compound nos. 301-306): < 1500 nM; IC50 (wildtype Kras / hSOS1; compound nos. 301-306): < 1500 nM
"CN1CCC[C@H]1COc1nc(N2CCNCC(F)(F)C2)c2cc(Cl)c(-c3ccc(F)c4sc(N)nc34)c(F)c2n1 [Compound 104, 4-(6-chloro-4-(6,6-difluoro-1,4-diazepan-1-yl)-8-fluoro-2-(((S)-1-methylpyrrolidin-2-yl)methoxy)quinazolin-7-yl)-7-fluorobenzo[d]thiazol-2-amine]",< 500,< 500,–,–,–
"Nc1nc2c(-c3c(Cl)cc4c(N5[C@@H]6CC[C@H]5CNC6)nc(OC[C@@]56CCCN5C[C@H](F)C6)nc4c3F)ccc(F)c2s1 [Compound 301, 4-(4-((1R,5S)-3,8-diaza-bicyclo[3.2.1]octan-8-yl)-6-chloro-8-fluoro-2-(((2R,7aS)-2-fluorotetra-hydro-1H-pyrrolizin-7a(5H)-yl)methoxy)quinazolin-7-yl)-7-fluorobenzo[d]thiazol-2-amine]",–,–,–,–,IC50 ([1]; compound nos. 301-306): < 1500 nM; IC50 (wildtype Kras / hSOS1; compound nos. 301-306): < 1500 nM
"Nc1nc2c(-c3c(Cl)cc4c(N5CC6CCC(C5)N6)nc(OCC5(CN6CCC(F)(F)C6)CC5)nc4c3F)ccc(F)c2s1 [Compound 411, 4-(4-(3,8-diazabicyclo-[3.2.1]octan-3-yl)-6-chloro-2-((1-((3,3-difluoropyrrol-idin-1-yl)methyl)cycloprop-yl)methoxy)-8-fluoroquin-azolin-7-yl)-7-fluorobenzo-[d]thiazol-2-amine]",–,–,> 500,< 500,–
"Cc1ccnc(C(C)C)c1-n1c(=O)nc(N2CCNCC(F)(F)C2)c2cc(F)c(-c3cccc4sc(N)nc34)nc21 [Compound 111, 7-(2-aminobenzo[d]thiazol-4-yl)-4-(6,6-difluoro-1,4-diazepan-1-yl)-6-fluoro-1-(2-isopropyl-4-methylpyr-idin-3-yl)pyrido[2,3-d]pyr-imidin-2(1H)-one]",> 500,> 500,–,–,–
"Nc1ccc(-c2ccccc2-c2c(Cl)cc3c(N4CCCCCC4)nc(OCC45CCCN4CCC5)nc3c2F)cc1 [Compound 450, 2′-(4-(azepan-1-yl)-6-chloro-8-fluoro-2-((tetrahydro-1H-pyrrolizin-7a(5H)-yl)meth-oxy)quinazolin-7-yl)-[1,1′-biphenyl]-4-amine]",–,–,> 500,< 500,–
"Nc1nc2c(-c3c(Cl)cc4c(N5CCNCC(F)(F)C5)nc(OCc5ccccn5)nc4c3F)cccc2s1 [Compound 139, 4-(6-chloro-4-(6,6-difluoro-1,4-diazepan-1-yl)-8-fluoro-2-(pyridin-2-ylmethoxy)-quinazolin-7-yl)benzo[d]-thiazol-2-amine]",> 500,> 500,–,–,–
"Cc1cc2c(N3CCNCC(F)(F)C3)nc(OC[C@@H]3CCCN3C)nc2c(F)c1-c1cccc2sc(N)nc12 [Compound 157, 4-(4-(6,6-difluoro-1,4-diazepan-1-yl)-8-fluoro-6-methyl-2-(((S)-1-methyl-pyrrolidin-2-yl)methoxy)-quinazolin-7-yl)benzo[d]-thiazol-2-amine]",< 500,< 500,–,–,–
"NCC1C2CCC1CN(c1nc(OCC34CCCN3CCC4)nc3c(F)c(-c4ccc(F)c5sc(N)nc45)c(Cl)cc13)C2 [Compound 406, 4-(4-((1R,5S,8r)-8-(amino-methyl)-3-azabicyclo[3.2.1]-octan-3-yl)-6-chloro-8-fluoro-2-((tetrahydro-1H-pyrrolizin-7a(5H)-yl)meth-oxy)quinazolin-7-yl)-7-fluorobenzo[d]thiazol-2-amine]",–,–,< 500,< 500,–

# From patent publication US20240254129A1, “HETEROCYCLIC COMPOUNDS AND USES THEREOF” (Kumquat Biosciences Inc., priority 2021, published 2024)
